According to patent US10301292B2, “Bicyclic compound” (Takeda Pharmaceutical Company Limited, priority 2014, dated 2019):

Columns and labels:
human ACC1 = biological target: T1, human ACC1 (Homo sapiens, UniProt Q13085); experiment: Measurement of ACC1 inhibitory activity (Malonyl-CoA production, RapidFire-mass spectrometry); type: biochemical; conditions: 10 μM of the test compound; recombinant human ACC1; read-out: ACC1 inhibitory rate (%) at 10 μM
T1 construct: His tag (from vector pFAST-BacHTc; protein captured on Ni-NTA) (N); made in house; host or cells: SF-9 insect cells, recombinant baculovirus BAC-ACC1
Method in brief: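 Sf9-expressed His-tagged human ACC1, diluted to 0.2 μg/ml in HEPES pH 7.5/MgCl2/citrate/DTT/0.001% BSA, was preincubated 60 min at RT with compound. Reaction started with substrate solution (50 mM KHCO3, 200 μM ATP, 200 μM acetyl-CoA), ran 30 min at RT, then was formic acid-quenched. Malonyl-CoA was quantified by RapidFire-MS against malonyl-13C3-CoA.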

HCT116 cells = experiment: Growth inhibitory activity on HCT116 cell (CellTiter-Glo); type: cell-based; conditions: Homo sapiens, HCT-116, 72 h, table head: 10 μM (text b2498: 1 μM), 3 days incubation, read-out: HCT116 cell proliferation inhibitory rate (%) at 10 μM
Method in brief: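 HCT116 cells in RPMI with 2% FBS, 900 cells/well, treated the day after seeding and incubated 3 days at 37 °C, 5% CO2. Viability read by CellTiter-Glo luminescence. Percent inhibition calculated relative to untreated wells, with cell-free wells subtracted as background.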

- inhibition at 10 µM (human ACC1): 98%
Structure (SMILES): CC(NC(N)=O)c1ccc2nc(-c3ccc(Oc4cccc(OCC5CC5)c4)nc3)oc2c1 (centres unmarked) [Example 98, 1-(1-(2-(6-(3-(cyclopropylmethoxy)phenoxy)pyridin-3-yl)-1,3-benzoxazol-6-yl)ethyl)urea]
- inhibition at 10 µM (HCT116 cells): 25%
